Assays:
ten strains of E. coli = assay type: cell-based, Escherichia coli; also: key: +: indicates that the organism tested was capable of utilizing the carbon source listed; −: indicates that the organism tested was not capable of utilizing the carbon source listed; indicates weak positive reactions
HepG2 cells = HepG2 cells on flat bottom plastic wells, energy sources at a range of concentrations; assay type: cell-based, human; details: Homo sapiens, HepG2, 72 h, read-out: HepG2 Cells Responses After 72 hours in Culture and a 4 hour Color Development Period
Method in brief: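 HepG2 cells plated overnight at 4×10^4 cells/cm^2 in glucose-, glutamine- and pyruvate-free DME with 10% HI FBS, then exposed to each energy source at 0.033 to 20 mM final for 48 to 72 h at 37° C, 5% CO2. MTS/PMS colour read at 490 nm (reference 650 nm) after 4-24 h; cell-free plate OD subtracted, data normalised to % negative control (water, no energy source).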

[1] = tested on: Undifferentiated HL-60 cells; assay: Energy use by undifferentiated HL-60 cells; assay type: cell-based, human; details: Homo sapiens, HL-60, 24 h, read-out: Energy Use by Undifferentiated HL-60 Cells
[2] = tested on: DMSO-differentiated HL-60 cells; assay: Energy use by DMSO-differentiated HL-60 cells; assay type: cell-based, human
Method in brief: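 HL-60 cells, […] differentiated with 1.25% DMSO for 3 days, were plated at 5×10^4/well in DME-R with test energy sources at 0.033–20 mM final for 24 h at 37 °C. Viability was measured by MTS/PMS at 490 nm (ref 650 nm) 24 h after reagent addition. Values were background-subtracted using cell-free plates and expressed as % of the no-energy-source control.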

HL-60 cells = assay: Effect of 10 mM citric acid on HL-60 energy utilization; assay type: cell-based, human; details: negative control without energy sources and without citric acid

Compound: Cc1cn([C@H]2C[C@H](O)[C@@H](CO)O2)c(=O)[nH]c1=O [Thymidine]
- carbon source utilization (ten strains of E. coli): +
- activity at 30 µM (HepG2 cells; Conc. 0.03 mM): 115%
- activity at 100 µM (HepG2 cells; Conc. 0.10 mM): 158%
- activity at 330 µM (HepG2 cells; Conc. 0.33 mM): 180%
- activity at 1000 µM (HepG2 cells; Conc. 1.00 mM): 150%
- activity at 3300 µM (HepG2 cells; Conc. 3.3 mM): 135%
- activity at 10000 µM (HepG2 cells; Conc. 10 mM): 114%
- activity at 15000 µM (HepG2 cells; Conc. 15 mM): 101%
- activity at 20000 µM (HepG2 cells; Conc. 20 mM): 134%
- activity at 30 µM ([1]; Conc. 0.03 mM): 84.1%
- activity at 100 µM ([1]; Conc. 0.10 mM): 106%
- activity at 330 µM ([1]; Conc. 0.33 mM): 101%
- activity at 1000 µM ([1]; Conc. 1.00 mM): 90.9%
- activity at 3300 µM ([1]; Conc. 3.3 mM): 111%
- activity at 10000 µM ([1]; Conc. 10 mM): 80.3%
- activity at 15000 µM ([1]; Conc. 15 mM): 81.3%
- activity at 20000 µM ([1]; Conc. 20 mM): 52.3%
- energy source use in words ([2]; DMSO-differentiated HL-60 cells): able to utilize thymidine at concentrations of 0.1-15 mM
- activity at 30 µM ([2]; Homo sapiens, HL-60, 24 h, Conc. 0.03 mM, read-out: Energy Use by DMSO-Differentiated HL-60 Cells): 96%
- activity at 100 µM ([2]; Homo sapiens, HL-60, 24 h, Conc. 0.10 mM, read-out: Energy Use by DMSO-Differentiated HL-60 Cells): 112%
- activity at 330 µM ([2]; Homo sapiens, HL-60, 24 h, Conc. 0.33 mM, read-out: Energy Use by DMSO-Differentiated HL-60 Cells): 143%
- activity at 1000 µM ([2]; Homo sapiens, HL-60, 24 h, Conc. 1.00 mM, read-out: Energy Use by DMSO-Differentiated HL-60 Cells): 165%
- activity at 3300 µM ([2]; Homo sapiens, HL-60, 24 h, Conc. 3.3 mM, read-out: Energy Use by DMSO-Differentiated HL-60 Cells): 173%
- activity at 10000 µM ([2]; Homo sapiens, HL-60, 24 h, Conc. 10 mM, read-out: Energy Use by DMSO-Differentiated HL-60 Cells): 160%
- activity at 15000 µM ([2]; Homo sapiens, HL-60, 24 h, Conc. 15 mM, read-out: Energy Use by DMSO-Differentiated HL-60 Cells): 160%
- activity at 20000 µM ([2]; Homo sapiens, HL-60, 24 h, Conc. 20 mM, read-out: Energy Use by DMSO-Differentiated HL-60 Cells): 103%
- Effect of 10 mM Citric Acid on HL-60 Energy Utilization (HL-60 cells; energy source 0.03 mM with 10 mM citric acid): 5.2 % of negative control
- Effect of 10 mM Citric Acid on HL-60 Energy Utilization (HL-60 cells; energy source 0.10 mM with 10 mM citric acid): 18.9 % of negative control
- Effect of 10 mM Citric Acid on HL-60 Energy Utilization (HL-60 cells; energy source 0.33 mM with 10 mM citric acid): 12.4 % of negative control
- Effect of 10 mM Citric Acid on HL-60 Energy Utilization (HL-60 cells; energy source 1.00 mM with 10 mM citric acid): 22.1 % of negative control
- Effect of 10 mM Citric Acid on HL-60 Energy Utilization (HL-60 cells; energy source 3.3 mM with 10 mM citric acid): 27.9 % of negative control
- Effect of 10 mM Citric Acid on HL-60 Energy Utilization (HL-60 cells; energy source 10 mM with 10 mM citric acid): 31.0 % of negative control
- Effect of 10 mM Citric Acid on HL-60 Energy Utilization (HL-60 cells; energy source 15 mM with 10 mM citric acid): 20.9 % of negative control
- Effect of 10 mM Citric Acid on HL-60 Energy Utilization (HL-60 cells; energy source 20 mM with 10 mM citric acid): 64.8 % of negative control

From patent US9274101B2 (BIOLOG, Inc., priority 2001, dated 2016)
